Test [1] relates to HUVEC cells. Description: Matrigel capillary tube-like formation. Type of test: cell-based, human. The following applies: 5% FBS, 18 h, parstatin (1-41) 0.3 to 10 μM, other peptides 10 μM. How it is done:
Primary human umbilical vein endothelial cells (HUVEC cells) were obtained from freshly delivered umbilical cords from caesarean births and were grown in M199 medium with 20% fetal bovine serum (FBS) supplemented with endothelial cell growth supplement and heparin. One of the most specific tests for angiogenesis is the measurement of the ability of endothelial cells to form capillary-like structures (i.e., tube formation). Tube formation is a multi-step process involving cell adhesion, migration and differentiation. Tube formation can be enhanced by use of Matrigel or fibrin clots to coat plastic culture dishes and it is an accepted model of angiogenesis.
Matrigel™ (Becton Dickinson Labware, N.J., USA) is a mixture of basement membrane components extracted from the Englebreth-Holm-Swarm tumor. […] Matrigel™ (250 μl) was added to each well of a 24-well plate and allowed to polymerize. A suspension of 40,000 HUVEC cells in M199 medium containing 5% FBS was added into each well coated with Matrigel™.
Cells were treated with increasing concentrations of human parstatin (1-41), scrambled parstatin, or parstatin (24-41) fragment. After 18 hours of incubation, the medium was removed, and the cells were fixed and stained, and tube-like structures were quantitated.

Test [2] has as its system HUVEC cells. Description: MTT cell proliferation assay. Type of test: cell-based, human. As for the experimental part: Cell proliferation was evaluated using a 3-(4,5-[…])-2,5-diphenyltetrazolium bromide (MTT, Sigma-Aldrich, St. Louis, Mo.) assay. Endothelial cells (10,000/well) were seeded in 24-well tissue culture plates and incubated with growth medium for 24 h. Cells were then treated with the vehicle or the indicated peptides in medium containing 5% FBS for 1 to 3 days. After 24, 48, or 72 hours, MTT solution (5 mg/ml) was added to each well and incubated for 3 h at 37° C. The blue formazan crystals were solubilized by addition of DMSO and absorbance at 450 nm was recorded using a 96-well plate reader.
(Formazan colour is commonly taken as a measure of viable cells.)

Test [3] concerns HUVEC cells. Nature of the test: modified Boyden's chamber cell migration assay. Type of test: cell-based, human. The following applies: toward 5% FBS, 6 h; other peptides 10 μM. How it is done:
HUVEC cell migration was assessed using a modified Boyden's chamber assay, i.e., in Transwell cell culture chambers (Corning Life Sciences, Acton, Mass.). Briefly, polycarbonate filters with 8 μm pores were used to separate the upper and the lower chambers. Cells were added to the upper compartment at a density of 10,000 cells/100 μl in serum-free medium containing 0.5% BSA and incubated for 6 h. Directional migration (chemotaxis) in the lower chamber was induced by addition of medium containing 5% FBS to the lower chamber. Where indicated parstatin or other peptides were added to lower chamber.
Cells on the filters were fixed and stained. The non-migrated cells (cells in upper surface) were removed by wiping with cotton swabs. The cells on the lower surface were counted manually under microscope in six predetermined fields. Parstatin (1-41) attenuated chemotactic cell migration through microporous membrane in response to serum (FIG. 3C). When human parstatin was combined with 5% FBS, the number of migrated cells was reduced in concentration-dependent manner.

Test [4] deals with corneas of Sprague-Dawley rats. Nature of the test: corneal histopathology after chemical burn (vessels, neutrophils). Type of test: in vivo, rat. As to conditions: 2×100 μg, day 7. How it is done:
After the above-described processes were performed, the rats were sacrificed (7 days) and the eyes were excised. All eyes were sectioned (4 μm) and stained with hematoxylin-eosin. Two independent pathologists, in a blinded manner, evaluated the microvessel density and the inflammatory cell infiltration in each slide. Total corneal vascular vessels and neutrophils were counted at 200× in seven representative stained tissue sections for each eye, covering all cornea area and having a similar distance from the central burn.

The next test has as its system caspase-3 in HUVEC cells. Nature of the test: caspase-3 activity colorimetric assay. Type of test: cell-based, human. As to conditions: 0.5% BSA, 24 h; mouse and scrambled 10 μM. How it is done: To further support the involvement of caspases in parstatin (1-41) pro-apoptotic effect, its effect on caspase-3 activation was examined using a commercially available kit (Promega, Madison, Wis.). The colorimetric substrate, Ac-DEVD-p-nitroanilide, is cleaved by caspase-3 to release yellow p-nitroanilide, was measured by absorbance at 405 nm to detect caspase activation.
HUVEC cells were grown in 60 mm tissue culture plates until approximately 80% confluency. Cells were treated in absence or in presence of 0.5% BSA or bFGF for 24 h in serum-free medium. Suspended and adherent cells were collected and lysed. Caspase-3 activity was measured by absorbance at 405 nm.

Test [5] concerns Erk1/2 (p42/44 MAPK) in HUVEC cells. Description: Erk1/2 phosphorylation immunoblot (MAP kinase pathway). Type of test: cell-based, human. As to conditions: pretreatment 1 h, 10 μM; stimulated by FBS, bFGF or VEGF. How it is done:
The MAPK (Erk1/2, p42/44) cascade mediates mitogenesis. […] HUVEC cells were cultured in 35 mm tissue culture dishes. After reaching 80% confluency, cells were growth factor-starved and subsequently stimulated for 10 min with vehicle or indicated agents. In combination experiments, cells were pretreated with parstatin or other peptides for 10 to 60 min.
Attached cells were lysed with Laenmli sample buffer, resolved in 10% SDS-PAGE, and transferred to nitrocellulose membranes. Membranes were incubated with primary antibodies against phospho p42/44 mitogen-activated protein kinases (p-Erk1/2, New England Biolabs, UK) and p42/44 Erk1/2 (t-Erk1/2, New England Biolabs, UK). Membranes were then probed with secondary antibodies horseradish peroxidase-conjugated, and proteins were visualized by chemiluminescent detection.
On the technique in general: A western blot detects proteins with antibodies after separation by electrophoresis.

Test [6] deals with HUVEC cells. Description: Fibrin gel in vitro angiogenesis assay. Type of test: cell-based, human. As to conditions: VEGF/bFGF-induced, 24 h; other peptides 10 μM. As for the experimental part: The ability of endothelial cells to form three-dimensional structures was analyzed using a Fibrin gel in vitro angiogenesis assay kit (Chemicon International Inc. Temecula, Calif.). Fibrin gels were formed in 48-well plates by mixing fibrinogen and thrombin solutions, according to manufacturer instructions. Cells (40,000 cells/well) were then added and cultured in medium containing 2% FBS for 18 h. After the addition of a second layer of fibrin gel, endothelial cells sandwiched within fibrin gels were cultured in serum-free medium containing 0.5% bovine serum albumin (BSA) and the combination of VEGF/bFGF for 24 h. Where indicated, parstatin (1-41) or other indicated peptides were added. Capillary-like network was photographed and measured.

The test system of test [7] is HUVEC cells. Description: [3H]-thymidine incorporation (DNA synthesis). Type of test: cell-based, human. The following applies: serum, bFGF or VEGF; comparison peptides 10 μM. As for the experimental part:
The ability of parstatin (1-41) to inhibit DNA synthesis of endothelial cells was assessed in thymidine incorporation assays. HUVEC cells were grown until 60-80% confluent in 24-well plates. Cells were treated with indicated peptides in serum-free medium containing either 0.5% BSA, or VEGF, or bFGF, or medium containing 5% FBS, or epidermal growth factor (EGF), or heparin-binging EGF (HB-EGF) for 18 hours. All cells were pulsed with 0.5 μCi/ml [3H]-thymidine (ICN Biomedicals Inc., Irvine Calif.) for additional 6 h. Radioactivity incorporated into DNA was determined in liquid scintillation counter.
(Uptake of a labelled nucleoside into DNA is a usual measure of proliferation.)

For test [8], the system named is chick chorioallontoic membrane (CAM). Type of test: in vivo. The following applies: 10 nmoles, 48 h. As for the experimental part:
The in vivo chick chorioallontoic membrane (CAM) angiogenesis model was used to evaluate the effect of parstatin (1-41) in angiogenesis. On incubation day 9 of fertilized chicken eggs, an O-ring (1 cm^2) was placed on the surface of the CAM and the vehicle or the indicated substances were placed inside this restricted area. After 48 h, CAMs were fixed in saline-buffered formalin, photographed, and analyzed using the Scion Image software (Scion Image Release Beta 4.0.2 software; Scion Corporation, Frederick, Md.). Image analysis was performed on at least 18 eggs for each group. Vessel number and length were evaluated by pixel counting, and the results expressed as mean percentage of control ±SE. Statistical analyses were performed using a Student's t test.

The subject of test [9] is HUVEC cells. Nature of the test: cellular uptake of FITC-labeled peptides by flow cytometry. Type of test: cell-based, human. The following applies: 30 min exposure. How it is done: HUVEC cells in the exponential growth phase were exposed to various concentrations of parstatin (1-41)-FITC in serum-free medium containing 0.5% BSA. After incubation times ranging from 1 min to 60 min, cells were washed extensively. Washed cells were incubated for 10 min with trypsin at 37° C. to remove the cell surface-bound parstatin. Suspended cells were subsequently centrifuged, washed, and analyzed on FACS flow cytometer (EPICS XL-MCL; Coulter).
The uptake of a given parstatin (1-41)-FITC into cells was assessed by the change of the FITC-positive cell population compared with untreated control cell samples.

For test [10], the system named is HUVEC cells. Description: cellular uptake by fluorescence microscopy. As to conditions: FITC-labeled peptide. Type of test: cell-based, human. How it is done:
4′,6-Diamidino-2-phenylindole (DAPI) was used to stain nuclei of all cells. Cell fluorescence was imaged on a Nikon Eclipse TE2000-U microscope. FITC and DAPI were excited using 490-nm and 360-nm filters, respectively. The emission signals were sorted out using 514 and 460 filters for the FITC and DAPI, respectively. HUVEC cells were treated with 10 μM of parstatin (1-41)-FITC for different time intervals. […] FITC signal was detected as early as 5 min of cell exposure to parstatin (1-41)-FITC (FIG. 9C).

Ends that are not written are not given here. * marks the point of attachment. FITC = O=C1OC2(c3ccc(O)cc3Oc3cc(O)ccc32)c2ccc(NC(=S)*)cc21

“LRTNASLLVPFLTARAKSSGTREAADPPRLMCLRPLARRCG (Scrambled synthetic peptide) [scrambled parstatin, reference compound]”: the “tube formation on Matrigel” value with HUVEC cells [1] is listed as “did not affect”. For the same substance, the HUVEC cell proliferation entry in the test with HUVEC cells [2] (10 μM) was “without effect”. The chemotactic cell migration result in the test with HUVEC cells [3] was “without effect”. In addition, in [4], the “mean number (density) of vascular vessels per section” value is given as 77.17±3.11 and the numbers of neutrophils is 39±2.54 cells/corneal section. For the same substance, in the test with caspase-3 in HUVEC cells, the caspase-3 activity entry is given as “without effect”. Besides, in [5], the “activation of Erk1/2” value is “did not alter”. For the same substance, in the test on HUVEC cells [6], the “capillary-like network (total capillary tube length) in fibrin gels” value was “did not affect”. For the same substance, the “DNA synthesis in HUVEC cells” value with HUVEC cells [7] is on record as “did not cause any significant effect”. Besides, the “inhibition of the basal level of angiogenesis in CAMs” value in [8] was “did not cause any significant effect”.
Regarding “MGPRRLLIVALGLSLCGPLLSSRVPMSQPESERTDATVNPR [mouse parstatin, 1-41-amino acids cleaved N-terminal fragment of mouse PAR-1]”, the “tube formation on Matrigel” value in the test on HUVEC cells [1] is listed as “effective in inhibiting tube formation”; with HUVEC cells [1] (listed as mouse parstatin (1-41)), “less pronounced, but still significant, inhibitory effect”. Moreover, the IC50 in the test with HUVEC cells [2] (stimulus not given, read-out: half-maximal concentration, inhibiting cell proliferation) came to 20 µM. The chemotactic cell migration entry in the test with HUVEC cells [3] is “significant inhibitory effect, but to a lower extent”. The caspase-3 activity entry with caspase-3 in HUVEC cells is reported as “moderate increase”. Besides, in [5], the “activation of Erk1/2” value was “less pronounced effect”. Further, in the test with HUVEC cells [6], the “capillary-like network (total capillary tube length) in fibrin gels” value was “less pronounced, but still significant, inhibitory effect”. The “DNA synthesis in HUVEC cells” value in the test with HUVEC cells [7] was “significant, but less effective inhibitory effect”.
Turning to “TRARRPESKATNATLDPRK-FITC (TRARRPESKATNATLDPRK(FITC); also: FITC linked to the C-terminal lysine; listed as Homo sapiens) [parstatin (24-41)-FITC, FITC conjugated to human parstatin (24-41) fragment]”, the “fraction of FITC-positive cell population” value with HUVEC cells [9] is “minimal and comparable with that of control cells”. The “cell fluorescence in microscope images” value with HUVEC cells [10] is “no fluorescence was observed”.
